# Test system: Zucker fa/fa obese rats
# Assay: Glucose tolerance test (GTT) in Zucker rat model of NASH
# Type: in vivo
# Conditions: 100 mg/kg APL p.o. b.i.d., 78 days, **p<0.01
# Excerpt: Zucker fa/fa obese rats and Zucker Fa/fa lean rats (7-week old male animals obtained from Charles Rivers Laboratories, Wilmington, MA, USA) were maintained in individual cages (1 rat per cage to encourage sedentary activity) and had free access to standard rodent chow (Cat #5053, obtained from Labdiet, Saint Louis, MO) and water (filtered and packed using a Hydrapak system) for 7 days until the start of the experiment. Zucker fa/fa obese rats were randomly assigned to two groups: 1) vehicle p.o.b.i.d. (oral administration, twice a day) for 78 days (n=7); and 2) 100 milligram per kilogram (mg/kg) body weight APL (p.o.b.i.d.) for 78 days (n=8). Zucker Fa/fa lean rats (n=4) were administered vehicle (p.o.b.i.d.) for 78 days. Phosphate-buffered saline (PBS), which is the solution used to dissolve APL, was used as vehicle solution. APL powder was dissolved under sterile conditions with PBS at a concentration of 100 mg/mL; volumes were adjusted for each animal accordingly to their body weight. […]
# At the conclusion of the experimental time period (78 days for rats and 130 days for mice), the animals were subjected to a glucose tolerance test (GTT) as follows. […] Glucose levels were measured at 0, 15, 30, 45, 60, and 120 minutes after glucose administration. Glucose was measured using the AlphaTRAK 2 glucometer from Abbott
compound,measurement,value
"NCCCNCCCC[C@H](N)C(=O)O [APL, (S)-2-amino-6-((3-aminopropyl)amino)hexanoic acid]","AUC of GTT, obese rats treated with APL vs obese rats treated with vehicle",significantly lower
